Data set [1] relates to C. albicans WO-1 cells. The data set can be described thus: Cell permeability assay (calcein release). The class given is cell-based, Candida albicans. Conditions: calcein-loaded C. albicans WO-1, 10 mM potassium phosphate buffer pH 7.0, peptide 50 μg/mL, fluorescence 485/530 nm. The protocol: Cell permeability was monitored by the release of the intracellularly accumulated dye calcein. Overnight C. albicans WO-1 cells were washed twice with and resuspended in 10 mM potassium phosphate buffer (pH = 7.0) at a concentration of 10^7 cells mL^−1. Cells were loaded with acetomethoxy-calcein at a final concentration of 5 μM for 2 hours at room temperature. Cells were washed three times to remove the extracellular dye and then 100 μL of the suspension was transferred to FIA black 96-well plates. NCR peptides were then added at a concentration of 50 mg/L, and the release of calcein (formed by the cells' esterases) was measured by its fluorescence in a microtiter plate reader (FLUOstar OPTIMA) at excitation and emission wavelengths of 485 nm and 530 nm, respectively. Calcein efflux was calculated as previously reported.

Data set [2] relates to C. albicans strains WO-1 and Sc 5314. The data set can be described thus: Microdilution antifungal assay, summary for C. albicans. Particulars: strains WO-1 and Sc 5314, LSM medium, microdilution plate assay. The class given is cell-based, Candida albicans. The protocol: (§1) The antifungal activity of the NCR peptides against C. albicans strains and other Candida species was determined in vitro using 96-well flat bottom microtiter plates (Sarstedt). Fifty microliters of dilutions from each peptide (final concentrations in the assays ranged from 2.5 to 100 μg/mL) was added to 50 μL of 10^4 cells mL^−1 and 10^5 cells mL^−1 in LSM. The plates were incubated at 30°C and the peptide concentrations that prevented the germination of yeast cells were determined by microscopic analysis and measurement of absorbance at 600 nm with a microtiter plate reader (FLUOstar OPTIMA; BMG Labtech) after 24 and 48 hours. Minimal inhibitory concentration (MIC) was determined as the lowest concentration of the peptide at which there was no visible and measurable growth after 24 hours of incubation. To determine whether the antifungal effect was fungistatic or fungicidal, 10 μL from each treatment was dropped onto solid YPD plate after 3 and 24 hours. Plates were incubated at 30°C for 48 hours and developing colonies were observed. Minimal fungicidal concentration (MFC) was defined where no fungal growth could be observed.
A general note: In broth dilution the organism is exposed to a series of concentrations in liquid medium.

In data set [3] the test system is PK E6/E7 vaginal epithelial cells. Nature of the data set: MTT assay, cytotoxicity on human epithelial cells. The class given is cell-based. Particulars: peptide in PBgluc 3 hours at 37°C, 24 hours regeneration in CKM, MTT 4 hours, 560 nm. The protocol: The immortalized human vaginal epithelial cell line PK E6/E7 [15] was cultured in serum-free CKM supplemented with 0.005 μg/mL recombinant epidermal growth factor, 50 μg/mL bovine pituitary extract, L-glutamine, and antibiotic/antimycotic solution (Life Technologies) in a CO2 thermostat at 37°C [16]. Cells at 60–70% confluence were used in subsequent experiments.
MTT Assay. PK E6/E7 vaginal epithelial cells were seeded in the wells of a 96-well plate at a density of 1 × 10^4 cells per well in a final volume of 100 μL. CKM was then aspirated and 100 μL of the appropriate peptide diluted in PBgluc was added. After 3 hours of incubation at 37°C, the peptide solution was removed, and the cells were let to regenerate in CKM for 24 hours. Then 5 mg/mL 3-[4,5-dimethylthiazol-2-yl]-2,5-diphenyltetrazolium bromide (MTT) was added to each well and the plate was placed to 37°C for 4 hours. The amount of formazan formed by the activity of the mitochondrial succinate dehydrogenase of living cells was measured by using a microtiter plate reader (FLUOstar OPTIMA) at the wavelength of 560 nm.
10 μg/mL of primycin, a macrolide lactone antibiotic complex that rapidly kills PK cells, was used as a control for cytotoxicity in both assays.
(§2) MTT assays and impedance measurements were performed in at least four technical parallels and two biological replicates; all the data are presented as mean ± standard deviation. Significance was calculated with Newman-Keuls post hoc test using the GraphPad Prism version 5 for Windows and a probability (P) value of less than 0.05 was considered significant.
A general note: Tetrazolium assays rely on reduction of a dye to a coloured formazan, in cell work by metabolically active cells.

The subject of data set [4] is PK E6/E7 vaginal epithelial cells infected with C. albicans WO-1. The data set can be described thus: Vaginal epithelial cell - C. albicans coculture (RTCA). The class given is cell-based, human. Conditions: PK E6/E7 + C. albicans WO-1, MOI of 5, 3 hours coculture then peptide 3 hours in PBgluc at both 25 and 50 μg/mL, RTCA at 40 hours. As to the method:
PK E6/E7 cells were seeded in 96-well E-plates as described above for RTCA. On the next day, an overnight culture of C. albicans WO-1 was diluted to OD = 1 and let to grow until OD = 1.5–2. The fungal cell suspension was diluted in antibiotic/antimycotic-free CKM and was added to the human cells with a multiplicity of infection (MOI) of 5. After 3 hours of coculture at 37°C, CKM medium was replaced with NCR peptides in PBgluc. After 3 hours of incubation, peptides were removed and 200 μL of fresh antibiotic/antimycotic-free CKM was added. Subsequent measurements were performed as described above.
as §2

Data set [5] deals with C. albicans strain Sc5314. The format is cell-based, Candida albicans. Conditions: C. albicans Sc5314, LSM medium, 30°C, 24 hours of treatment, peptide 2.5 to 100 μg/mL, microscopy and absorbance at 600 nm; mean (±spread). As to the method:
(§3) The C. albicans strains WO-1 and Sc5314 were maintained on YPD medium (1% (w/v) yeast extract, 2% (w/v) peptone, 2% (w/v) dextrose, 2% (w/v) agar; Beckton, Dickinson and Company). Hyphal growth was induced in complete keratinocyte medium (CKM; Life Technologies) without serum. The effect of the NCR peptides on free-living fungi was investigated either in PBgluc buffer (1 mM KH2PO4, 3 mM Na2HPO4 × 7H2O, 5% glucose, pH = 7.0) or in low-salt fungal medium (LSM) composed of 5 mM K2HPO4, 100 μM MgSO4, 10 μM FeCl, 0.2 μM CoCl2, 0.2 μM CuSO4, 4 μM Na2MoO4, 1 μM H3BO3, 0.2 μM KI, 1 μM ZnSO4, 0.2 μM MnSO4, 2% glucose, 0.2% asparagine, 40 μg/mL methionine, 4 μg/mL myo-inositol, 0.4 μg/mL biotin, 2 μg/mL thiamine-HCl, and 0.4 μg/mL pyridoxine-HCl.
as §1

Data set [6] has as its system C. albicans strain WO-1. The format is cell-based, Candida albicans. Particulars: C. albicans WO-1, LSM medium, 30°C, 24 hours of treatment, peptide 2.5 to 100 μg/mL, microscopy and absorbance at 600 nm; mean (±spread). The protocol: as §3, §1
For data set [7], the system named is C. albicans WO-1. The format is cell-based, Candida albicans. Particulars: 10 μL dropped onto solid YPD, 30°C for 48 hours, mean (±spread); for Minimal fungicidal concentration, 3 h: C. albicans WO-1, 3 hours of treatment; for Minimal fungicidal concentration, 24 h: C. albicans WO-1, 24 hours of treatment. As to the method:
as §1

Data set [8] concerns C. albicans WO-1 cells. The data set can be described thus: Localization of FITC-labeled peptides (confocal microscopy). The format is cell-based, Candida albicans. Particulars: 5 μg/mL (sublethal), 3 hours at 30°C in LSM. As to the method: C. albicans WO-1 cells were labeled with 5 μg/mL of the FM4-64 membrane stain (Life Technologies) and 0.5 μg/mL of the DNA stain 4′,6-diamidino-2-phenylindole (DAPI, Sigma) for 15 minutes after 2 hours of peptide treatment. Images were captured with an Axio Observer Z.1 (Zeiss) fluorescent microscope. For studying the interaction of peptides with the fungus, an overnight C. albicans WO-1 culture was diluted in LSM and treated with FITC-conjugated peptides (at the sublethal concentration of 5 μg/mL) for 3 hours at 30°C. Cells were then centrifuged for 4 minutes at 600 rpm and the unbound peptides were removed by gentle pipetting of the supernatant and cells were resuspended in LSM. The cell suspension was dropped onto a coverslip and images were taken with an Olympus FluoView FV1000 confocal laser-scanning microscope.

Peptide text beside a SMILES is read from it.

Consider `CSCC[C@H](NC(=O)[C@H](CCCCN)NC(=O)[C@H](CCCNC(=N)N)NC(=O)[C@@H]1CCCN1C(=O)[C@H](CS)NC(=O)[C@H](Cc1c[nH]cn1)NC(=O)CNC(=O)[C@@H](NC(=O)[C@H](Cc1c[nH]cn1)NC(=O)[C@H](CCCCN)NC(=O)[C@H](CS)NC(=O)CNC(=O)[C@H](CC(N)=O)NC(=O)[C@H](CCCCN)NC(=O)[C@@H](N)CCSC)[C@@H](C)O)C(=O)N[C@@H](CS)C(=O)NCC(=O)N[C@@H](C)C(=O)N[C@@H](CCCCN)C(=O)N[C@H](C(=O)N[C@H](C(=O)N[C@@H](CCCCN)C(=O)N[C@@H](CS)C(=O)N[C@@H](CCCNC(=N)N)C(=O)N[C@@H](CC(N)=O)C(=O)N[C@@H](CC(N)=O)C(=O)N[C@@H](CCCCN)C(=O)N[C@@H](CS)C(=O)N[C@@H](CCC(N)=O)C(=O)N[C@@H](CS)C(=O)N[C@H](C(=O)N[C@@H](CCC(N)=O)C(=O)N[C@@H](CC(C)C)C(=O)O)C(C)C)[C@@H](C)O)[C@@H](C)O` [NCR192] (H-MKNGCKHTGHCPRKMCGAKTTKCRNNKCQCVQL-OH; N-terminus and C-terminus assumed), for which, in data set [1], the “Calcein (dye) efflux” value is recorded as 22.82 ± 11.16%. Besides, the “Anticandidal activity against the yeast form of growing C. albicans” value (“Anticandidal activity” for short) in data set [2] is “exhibited anticandidal activity”. Besides, the “Concentration that provoked cell death / toxicity” value in data set [3] stood at 100 µg/mL. Further, in data set [4], the “Prevention of C. albicans induced epithelial cell death” value (from here on “Prevention”) is “could be prevented”.

As for `CC[C@H](C)[C@H](NC(=O)[C@H](CS)NC(=O)CNC(=O)[C@H](CC(N)=O)NC(=O)[C@@H](N)CCCNC(=N)N)C(=O)N[C@H](C(=O)N[C@@H](CC(=O)O)C(=O)N1CCC[C@H]1C(=O)N[C@@H](CCCNC(=N)N)C(=O)N[C@@H](CS)C(=O)N1CCC[C@H]1C(=O)N[C@@H](Cc1ccc(O)cc1)C(=O)N[C@@H](CCC(N)=O)C(=O)N[C@@H](CCC(N)=O)C(=O)N[C@@H](CS)C(=O)N[C@@H](CCCNC(=N)N)C(=O)N[C@@H](CCCNC(=N)N)C(=O)N1CCC[C@H]1C(=O)N[C@@H](CC(C)C)C(=O)N[C@@H](Cc1ccc(O)cc1)C(=O)N[C@@H](CS)C(=O)N[C@@H](CCCNC(=N)N)C(=O)N[C@@H](CCCNC(=N)N)C(=O)N[C@@H](CCCNC(=N)N)C(=O)O)C(C)C` [NCR247] (H-RNGCIVDPRCPYQQCRRPLYCRRR-OH; N-terminus and C-terminus assumed), the “Minimal inhibitory concentration, Sc5314” value in data set [5] is 25 (±2) μg/mL. Moreover, in data set [6], the “Minimal inhibitory concentration, WO-1” value was 14 (±9) μg/mL. In data set [7], the “Minimal fungicidal concentration, 3 h” value was 14 (±10) μg/mL and the “Minimal fungicidal concentration, 24 h” value is 16.5 (±13) μg/mL. The “Calcein (dye) efflux” value in data set [1] was 29.65 ± 12.6%. Moreover, in data set [2], the “Anticandidal activity” value is “exhibited anticandidal activity”. In addition, the “Concentration that provoked cell death / toxicity” value in data set [3] came to 100 µg/mL. Moreover, the “Prevention” value in data set [4] is listed as “could be prevented”.

Take “EDIGHIKYCGIVDDCYKSKKPLFKIWKCVENVCVLWYK [NCR169]”: the “Calcein (dye) efflux” value in data set [1] is on record as “no calcein release”. In addition, the “Concentration that provoked cell death / toxicity” value in data set [3] is 100 µg/mL. In data set [4], the “Prevention” value was “unable to prevent vaginal epithelial cell death”.

For the molecule “RLNTTFRPLNFKMLRFWGQNRNIMKHRGQKVHFSLILSDCKTNKDCPKLRRANVRCRKSYCVPI [NCR335, cationic chemically synthesized mature NCR peptide of Medicago truncatula]”, in data set [5], the “Minimal inhibitory concentration, Sc5314” value is 12.5 (±2.5) μg/mL. In addition, the “Minimal inhibitory concentration, WO-1” value in data set [6] is listed as 11 (±1) μg/mL. In data set [7], the “Minimal fungicidal concentration, 3 h” value is given as 7 (±1) μg/mL and the “Minimal fungicidal concentration, 24 h” value is 8 (±2) μg/mL. In data set [1], the “Calcein (dye) efflux” value is reported as 43.12 ± 13.05%. Further, in data set [2], the “Anticandidal activity” value is recorded as “exhibited anticandidal activity”. Also, the “Concentration that provoked cell death / toxicity” value in data set [3] is more than 25 µg/mL. Besides, the “Prevention” value in data set [4] is given as “could be prevented”.

Regarding “SFLGTFISSCKRDKDCPKLYGANFRCRKGTCVPPI [NCR035, chemically synthesized mature nodule-specific cysteine-rich (NCR) peptide of Medicago truncatula]”, the “Localization of FITC-labeled peptide in C. albicans cells” value in data set [8] was “did not label the C. albicans cells”.

Turning to “VNDCIRIHCKDDFDCIENRLQVGCRLQREKPRCVNLVCRCLRR [NCR055, chemically synthesized mature nodule-specific cysteine-rich (NCR) peptide of Medicago truncatula]”, in data set [5], the “Minimal inhibitory concentration, Sc5314” value is listed as 50 (±3) μg/mL. In addition, the “Minimal inhibitory concentration, WO-1” value in data set [6] is reported as 50 (±4) μg/mL.

The record behind these values is paper PMC4163382, “Symbiotic Plant Peptides Eliminate Candida albicans Both In Vitro and in an Epithelial Infection Model and Inhibit the Proliferation of Immortalized Human Cells” (BioMed Research International, 2014).
